Experimental data taken from patent publication US20170122958A1, “Enzymes Functional Probes” (University of Dundee, priority 2013, published 2017).

Legend:
Brd2(1) [1] = molecular target: T1, Brd2(1) (Homo sapiens, UniProt P25440); assay: DSF thermal shift; assay type: binding; settings: wild type
T1 construct: Plasmids of the eight single BET bromodomain constructs Brd2(1), Brd2(2), Brd3(1), Brd3(2); His6 (N); made in house; host or cells: E. coli BL21(DE3)

Brd2(1)*(Val103-Ala) = molecular target: T2, Brd2(1)*(Val103-Ala) (Homo sapiens, UniProt P25440, V103A); assay: DSF thermal shift; assay type: binding; settings: mutant
T2 construct: Plasmids of the eight single BET bromodomain constructs Brd2(1), Brd2(2), Brd3(1), Brd3(2); His6 (N); made in house; host or cells: E. coli BL21(DE3)

Brd2(2) [2] = molecular target: T3, Brd2(2) (Homo sapiens, UniProt P25440); assay: DSF thermal shift; assay type: binding; settings: wild type
T3 construct: Plasmids of the eight single BET bromodomain constructs Brd2(1), Brd2(2), Brd3(1), Brd3(2); His6 (N); made in house; host or cells: E. coli BL21(DE3)

Brd2(2)*(Val376Ala) = molecular target: T4, Brd2(2)*(Val376Ala) (Homo sapiens, UniProt P25440, V376A); assay: DSF thermal shift; assay type: binding; settings: mutant
T4 construct: Plasmids of the eight single BET bromodomain constructs Brd2(1), Brd2(2), Brd3(1), Brd3(2); His6 (N); made in house; host or cells: E. coli BL21(DE3)

Brd4(1) = molecular target: T5, Brd4(1) (Homo sapiens, UniProt O60885); assay: DSF thermal shift; assay type: binding; settings: wild type
T5 construct: Plasmids of the eight single BET bromodomain constructs Brd2(1), Brd2(2), Brd3(1), Brd3(2), Brd4(1), Brd4(2), Brdt(1) and Brdt(2); His6 (N); made in house; host or cells: E. coli BL21(DE3)

Brd4(2) = molecular target: T6, Brd4(2) (Homo sapiens, UniProt O60885); assay: DSF thermal shift; assay type: binding; settings: wild type
T6 construct: Plasmids of the eight single BET bromodomain constructs Brd2(1), Brd2(2), Brd3(1), Brd3(2), Brd4(1), Brd4(2), Brdt(1) and Brdt(2); His6 (N); made in house; host or cells: E. coli BL21(DE3)

brd4(1)L094A = molecular target: T7, brd4(1)L094A (Homo sapiens, UniProt O60885, L94A); assay: DSF thermal shift; assay type: binding; settings: mutant
T7 construct: Plasmids of the eight single BET bromodomain constructs Brd2(1), Brd2(2), Brd3(1), Brd3(2), Brd4(1), Brd4(2), Brdt(1) and Brdt(2); His6 (N); made in house; host or cells: E. coli BL21(DE3)

brd4(2)L387A = molecular target: T8, brd4(2)L387A (Homo sapiens, UniProt O60885, L387A); assay: DSF thermal shift; assay type: binding; settings: mutant
T8 construct: Plasmids of the eight single BET bromodomain constructs Brd2(1), Brd2(2), Brd3(1), Brd3(2), Brd4(1), Brd4(2), Brdt(1) and Brdt(2); His6 (N); made in house; host or cells: E. coli BL21(DE3)

Brd2(1)*(Leu110-Ala) [3] = molecular target: T9, Brd2(1)*(Leu110-Ala) (Homo sapiens, UniProt P25440, L110A); assay: DSF thermal shift; assay type: binding; design: Plasmids of the eight single BET bromodomain constructs Brd2(1), Brd2(2), Brd3(1), Brd3(2); His6 (N); made in house; host or cells: E. coli BL21(DE3); settings: mutant
Protocol: (§1) DSF assays were performed on a LightCycler®480 from Roche or a Mx3005P Real Time PCR machine from Stratagene. […] SYPRO®Orange from Invitrogen Molecular Probes® was used as a reporter dye to monitor the denaturing process of the proteins. Samples were assayed on a 96-well plate with final protein concentrations of 2 μM for the LightCycler®480 and 6 μM for Mx3005P. Compounds were added at a final concentration of 10 μM for the LightCycler®480 and 30 μM for Mx3005P, while the tetra acetylated histone peptide was added to a final concentration of 100 μM and 300 μM respectively. […] The temperature was raised with a step of 0.6° C. per minute from 37° C. to 95° C. with the LightCycler®480 collecting 39 measurements per ° C., and 1° C. per minute from 25° C. to 95° C. with Mx3005P, collecting fluorescence readings at the end of each interval. Each sample was run in triplicates.
(§2) Collected data was analysed by IGOR Pro 6, a scientific software tool from Wave Metrics, Inc. Analysis was done following the recommendations of Niesen et al.. Fluorescence intensity was plotted as a function of temperature, generating a sigmoidal curve described by a two-state transition from folded to unfolded protein. Curves were fitted by the following sigmoidal equation: […]
(§3) A1 and A2 are the values of minimum and maximum intensities, respectively, x0 is the inflection point and dx is the rate. Fitted curves were differentiated in IGOR Pro 6 and the maximum of the first derivative was identified using the same program. These values correspond to the inflection points of the transition curves and thus to the melting temperatures of the proteins (Tm).

Brd2(2)*(Leu383-Ala) [4] = molecular target: T10, Brd2(2)*(Leu383-Ala) (Homo sapiens, UniProt P25440, L383A); assay: DSF thermal shift; assay type: binding; design: Plasmids of the eight single BET bromodomain constructs Brd2(1), Brd2(2), Brd3(1), Brd3(2); His6 (N); made in house; host or cells: E. coli BL21(DE3); settings: mutant
Protocol: as §1, §2, §3

Brd2(1) [5] = molecular target: T1, Brd2(1); assay: ITC reverse titration of protein into compound; assay type: binding; settings: for ΔH Brd2(1): ITC 30° C., 1% DMSO
Protocol: (§4) ITC experiments were carried out on a ITC200 instrument from MicroCal™ Experiments were conducted at 3 different temperatures 15° C., 25° C. and 30° C., while stirring at 1000 rpm. Buffers of proteins, peptide and compounds were matched to 20 mM HEPES pH 7.5 at 25° C. and 100 mM NaCl. Frozen protein was buffer exchanged as described for the DSF experiments. Each titration comprised 1 initial injection of 0.4 μl lasting 0.8 s, followed by 19 injections of 2 μl lasting 4 s each at 2 min intervals. The initial injection was discarded during data analysis. Standard and reverse titrations were conducted depending on the binding partners.
(§5) Reverse titrations were conducted to test the binding of the known ligands and the novel chemical probes to the wild types and the mutants. Experiments were carried out either at 25° C. or 30° C. […] In cases where the compound was solubilized in dimethyl sulfoxide, DMSO concentration was adjusted to 1% both in the syringe and in the cell.
(§6) All the data was fitted to a single binding site model using the Microcal LLC ITC200 Origin software provided by the manufacturer to yield enthalpies of binding (ΔH) and binding constants (Kas). Further thermodynamic parameters were calculated from these values (changes in entropy ΔS, changes in free energy AG and dissociation constants (Kds)).

Brd2(2) [6] = molecular target: T3, Brd2(2); assay: ITC reverse titration of protein into compound; assay type: binding; settings: ITC 30° C., 1% DMSO; for Kd: Kd Brd2(2)
Protocol: as §4, §5, §6

Solubility observations = settings: observation in words
Brd2(1)*(Leu110-Ala) [7] = molecular target: T9, Brd2(1)*(Leu110-Ala); assay: ITC reverse titration of protein into compound; assay type: binding; design: Plasmids of the eight single BET bromodomain constructs Brd2(1), Brd2(2), Brd3(1), Brd3(2), Brd4(1), Brd4(2), Brdt(1) and Brdt(2); His6 (N); made in house; host or cells: E. coli BL21(DE3); settings: for ΔH Brd2(1)* (Leu110-Ala): ITC 30° C., 1% DMSO
Protocol: as §4, §5, §6

Brd2(2)*(Leu383-Ala) [8] = molecular target: T10, Brd2(2)*(Leu383-Ala); assay: ITC reverse titration of protein into compound; assay type: binding; design: Plasmids of the eight single BET bromodomain constructs Brd2(1), Brd2(2), Brd3(1), Brd3(2), Brd4(1), Brd4(2), Brdt(1) and Brdt(2); His6 (N); made in house; host or cells: E. coli BL21(DE3); settings: ITC 30° C., 1% DMSO; for Kd: Kd Brd2(2)* (Leu383-Ala)
Protocol: as §4, §5, §6

[9] = tested on: Brd2(1) and (2) wild type and leucine to alanine, valine and isoleucine mutants; assay: DSF thermal stabilization (FIG. 15); assay type: binding, human; settings: result in words
Protocol: as §1, §2, §3

T9 sequence (P25440 74-180 L110A limits assumed): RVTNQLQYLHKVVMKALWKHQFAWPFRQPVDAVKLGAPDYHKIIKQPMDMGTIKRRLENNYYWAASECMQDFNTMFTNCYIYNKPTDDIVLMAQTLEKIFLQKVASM
T3 sequence (P25440 344-453 limits assumed): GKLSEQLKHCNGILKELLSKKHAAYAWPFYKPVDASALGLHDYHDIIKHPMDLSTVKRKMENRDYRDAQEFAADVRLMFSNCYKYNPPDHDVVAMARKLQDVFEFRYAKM
T1 sequence (P25440 74-180 limits assumed): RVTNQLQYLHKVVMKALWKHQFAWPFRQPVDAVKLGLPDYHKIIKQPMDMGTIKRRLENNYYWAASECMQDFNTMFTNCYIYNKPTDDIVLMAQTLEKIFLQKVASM
T10 sequence (P25440 344-453 L383A limits assumed): as the sequence (P25440 344-453 limits assumed) above, with L40A counted along it
T4 sequence (P25440 344-453 V376A limits assumed): as the sequence (P25440 344-453 limits assumed) above, with V33A counted along it
T2 sequence (P25440 74-180 V103A limits assumed): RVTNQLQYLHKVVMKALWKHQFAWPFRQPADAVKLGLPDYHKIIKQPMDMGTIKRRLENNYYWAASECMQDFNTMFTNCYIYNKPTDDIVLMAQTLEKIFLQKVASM

SMILES	ΔTm Brd2(1) (Brd2(1) [1]) [K]	ΔTm Brd2(2) (Brd2(2) [2]) [K]	ΔTm Brd4(1) (Brd4(1)) [K]	ΔTm Brd4(2) (Brd4(2)) [K]	ΔTm Brd4(1)* (L094A) (brd4(1)L094A) [K]	ΔTm Brd4(2)* (L387A) (brd4(2)L387A) [K]	ΔTm Brd2(1)*(Leu110-Ala) (Brd2(1)*(Leu110-Ala) [3]) [K]	ΔTm Brd2(2)*(Leu383-Ala) (Brd2(2)*(Leu383-Ala) [4]) [K]	Kd (Brd2(1) [5]) [µM]	ΔH Brd2(1) (Brd2(1) [5]) [kJ/mol]	ΔH Brd2(2) (Brd2(2) [6]) [kJ/mol]	Kd (Brd2(2) [6]) [µM]	Solubility (Solubility observations)	Kd (Brd2(1)*(Leu110-Ala) [7]) [µM]	ΔH Brd2(1)* (Leu110-Ala) (Brd2(1)*(Leu110-Ala) [7]) [cal/mol]	ΔH Brd2(2)* (Leu383-Ala) (Brd2(2)*(Leu383-Ala) [8]) [kJ/mol]	Kd (Brd2(2)*(Leu383-Ala) [8]) [µM]	further results
COC(=O)CC1N=C(c2ccc(Cl)cc2)c2cc(OC)cc(C)c2-n2c(C)nnc21 (centres unmarked) [Compound 4, Methyl 2-(6-(4-chlorophenyl)-8-methoxy-1,10-dimethyl-4H benzo[f][1,2,4]triazolo[4,3-a][1,4]diazepin-4-yl)acetate]	0.7 ± 0.2	4.0 ± 0.1	–	–	–	–	–	–	–	–	–	–	–	–	–	–	–	Thermal stabilisation brd2(1) (Brd2(1) [1]): 0.7 ± 0.2 °C; Thermal stabilisation brd2(1)V103A (Brd2(1)*(Val103-Ala)): 0.5 ± 0.3 °C; ΔTm Brd2(1)*(Val103-Ala) (Brd2(1)*(Val103-Ala)): 0.5 ± 0.3 K; Thermal stabilisation brd2(2) (Brd2(2) [2]): 4.0 ± 0.1 °C; Thermal stabilisation brd2(2)V376A (Brd2(2)*(Val376Ala)): 1.2 ± 0.1 °C; ΔTm Brd(2)*(Val376-Ala) (Brd2(2)*(Val376Ala)): 1.2 ± 0.1 K
COC(=O)[C@@H](CC1CC1)[C@@H]1N=C(c2ccc(Cl)cc2)c2cc(OC)ccc2-n2c(C)nnc21 (racemic) [Compound 16, (+−)-methyl (S)-2-((S)-6-(4-chlorophenyl)-8-methoxy-1-methyl-4H-benzo[f][1,2,4]triazolo[4,3-a][1,4]diazepin-4-yl)-3-cyclopropylpropanoate]	−0.5 ± 0.6	1.1 ± 0.3	−0.4 ± 0.5	0.3 ± 0.9	1.3 ± 0.2	0.1 ± 0.1	1.6 ± 1.0	2.3 ± 0.3	–	–	–	–	–	–	–	–	–	–
COC(=O)[C@H](CC1CC1)[C@@H]1N=C(c2ccc(Cl)cc2)c2cc(OC)ccc2-n2c(C)nnc21 (racemic) [Compound 13, (+−)-methyl (R)-2-((S)-6-(4-chlorophenyl)-8-methoxy-1-methyl-4H-benzo[f][1,2,4]triazolo[4,3-a][1,4]diazepin-4-yl)-3-cyclopropylpropanoate]	0.5 ± 0.3	3.7 ± 0.6	1.2 ± 0.6	2.0 ± 1.0	5.6 ± 0.3	5.8 ± 0.1	3.7 ± 0.2	5.3 ± 0.3	4.31 ± 3.05	-14.23 ± 1.814	-8.74 ± 0.8828	3.32 ± 1.86	lower than that for compounds with smaller bumps	0.36 ± 0.0682	−9662 ± 162.7	-32.92 ± 1.408	0.667 ± 0.33	–
CCC[C@@H](C(=O)OC)[C@@H]1N=C(c2ccc(Cl)cc2)c2cc(OC)ccc2-n2c(C)nnc21 (racemic) [Compound 12, (+−)-methyl (R)-2-((S)-6-(4-chlorophenyl)-8-methoxy-1-methyl-4H-benzo[f][1,2,4]triazolo[4,3-a][1,4]diazepin-4-yl)pentanoate]	1.7 ± 0.2	2.1 ± 0.1	2.9 ± 0.7	3.2 ± 0.7	6.4 ± 0.8	6.7 ± 0.2	4.0 ± 0.4	5.0 ± 0.1	5.88 ± 1.21	-48.074 ± 4.385	-39.83 ± 2.28	2.39 ± 1.48	lower than that for compounds with smaller bumps	0.4 ± 0.0824	−11160 ± 241.8	-29.69 ± 0.4473	0.265 ± 0.0539	Thermal stabilization of Brd2 mutants versus wild types (FIG. 15) [9]: smaller shifts
CCC[C@H](C(=O)OC)[C@@H]1N=C(c2ccc(Cl)cc2)c2cc(OC)ccc2-n2c(C)nnc21 (racemic) [Compound 15, (+−)-Methyl (S)-2-((S)-6-(4-chlorophenyl)-8-methoxy-1-methyl-4H-benzo[f][1,2,4]triazolo[4,3-a][1,4]diazepin-4-yl)pentanoate]	0.1 ± 0.3	0.5 ± 0.2	0.6 ± 1.1	−0.5 ± 1.1	2.4 ± 1.3	1.6 ± 0.3	0.9 ± 0.6	1.4 ± 0.2	–	–	–	–	–	–	–	–	–	–
